Molecular target: T1, Nog2 (Nog2-3xFLAG) (Saccharomyces cerevisiae, UniProt P53742)
T1 construct: full-length, genomic C-terminal 3xFLAG-6xHis tag (kept); native anti-FLAG purification from yeast within pre-60S particle with unmodified G2922 (spb1-D52A cells)
Test: cryo-EM structure, […] A
Format: binding
Conditions: Mg2+; GTPase active site; nucleotide co-purified; pre-60S with unmethylated G2922; Table 1 lists only Mg2+ as ligand

Nc1nc2c(ncn2[C@@H]2O[C@H](COP(=O)(O)OP(=O)(O)O)[C@@H](O)[C@H]2O)c(=O)[nH]1 [GDP]
cryo-EM structure, 2.9 A: switch I and switch II (motifs G2 and G3) are apparently ordered around GDP
